Experimental data reported in publication PMC7340446, “Optimization of PTH/PTHrP Hybrid Peptides to Derive a Long‐Acting PTH Analog (LA‐PTH)” (JBMR Plus, 2020).
Where no end group is shown, it is not given here.

Key:
[1] = molecular target: T1, human PTHR1 (R^0 conformation) (Homo sapiens, UniProt Q03431); assay: Competition binding to the R^0 conformation of PTHR1
T1 construct: expressed in transfected cells; host or cells: COS-7 cells (transient transfection; membranes)
T1 sequence (Q03431 27-593): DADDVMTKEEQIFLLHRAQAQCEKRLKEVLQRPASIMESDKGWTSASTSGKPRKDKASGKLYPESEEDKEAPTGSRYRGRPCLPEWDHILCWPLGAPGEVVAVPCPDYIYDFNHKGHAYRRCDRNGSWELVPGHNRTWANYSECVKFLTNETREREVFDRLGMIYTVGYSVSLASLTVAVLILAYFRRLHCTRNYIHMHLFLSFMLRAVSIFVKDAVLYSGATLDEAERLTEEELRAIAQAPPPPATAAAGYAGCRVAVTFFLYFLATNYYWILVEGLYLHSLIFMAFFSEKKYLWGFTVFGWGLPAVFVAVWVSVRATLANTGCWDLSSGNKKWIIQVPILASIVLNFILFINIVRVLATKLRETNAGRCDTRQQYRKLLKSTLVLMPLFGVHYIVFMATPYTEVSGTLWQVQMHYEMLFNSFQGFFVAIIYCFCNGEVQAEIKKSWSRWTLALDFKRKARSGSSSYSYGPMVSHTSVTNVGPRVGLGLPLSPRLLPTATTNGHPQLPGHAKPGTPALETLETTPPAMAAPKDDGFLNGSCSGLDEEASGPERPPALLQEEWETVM

[2] = Peptide solubility in aqueous buffers of neutral pH; format: physicochemical; details: aqueous buffers at neutral pH; approximate
[3] = system: thyroparathyroidectomized (TPTX) rats; assay: Repeated daily administration in TPTX rats (11‐day treatment, 12‐day study); format: in vivo, rat; details: daily s.c. 8.0 nmol/kg
Procedure: TPTX rats were injected i.v. or s.c. with vehicle or vehicle containing a PTH peptide, or orally treated once daily with vehicle (medium‐chain triglyceride; Chugai Pharma Manufacturing, Tokyo, Japan) or vehicle containing alfacalcidol (Chugai Pharma Manufacturing) for 11 days. Blood samples were obtained from the tail or jugular vein immediately before and at times after injection. Urine samples at 0 to 8 hours or 8 to 24 hours, were collected in metabolic cages. sCa and uCa, serum inorganic phosphorus (sPi) and urinary phosphorus (uPi), and creatinine (uCre) were measured with an automatic analyzer (7180; Hitachi, Ltd, Chiyoda, Tokyo, Japan). Urinary deoxypyridinoline (uDpD) was measured using a Metra DPD EIA kit (DS Pharma Biomedical, Osaka, Japan), and the data were normalized to the uCre concentrations. Serum FGF23 was measured using FGF23 ELISA assay (Immunodiagnostik AG, Bensheim, Germany). Serum 1,25‐dihydroxyvitamin D [1,25(OH)2D3] levels were determined by a ELISA immunoassay (Immunodiagnostic System Ltd, Bolden, UK).
Figure 4 Effects of 11‐day treatment (12‐day study) with M‐PTH/PTHrP or alfacalcidol on serum calcium (sCa) in thyroparathyroidectomized (TPTX) rats. TPTX rats were treated for 11 days with daily s.c. injection of either vehicle or M‐PTH/PTHrP, or with daily oral alfacalcidol at the indicated doses, and sham‐surgery control rats were s.c. injected daily with vehicle. The levels of Ca in serum and urine were assessed. Blood samples were collected from the jugular vein at 8 hours (A) and at 24 hours (B) after the last treatment administration, and assessed for total sCa. Total urine was collected in metabolic cages over the time intervals of 0 to 8 hours (C), and 8 to 24 hours (D) and assessed for total urinary Ca. Data are means ± SEM; n = 6 or 5 (2.0 and 4.0 nmol/kg of M‐PTH/PTHrP); *p < 0.05 M‐PTH/PTHrP versus TPTX‐vehicle; #p < 0.05 TPTX vehicle versus sham.
Supplementary file JBM4-4-e10367-s001.pdf: Figure S1 PTH ligand‐induced cAMP‐signaling responses in GP‐2.3 cells Time course of the cAMP‐dependent luminescence response measured at 2‐minute intervals in the presence of each ligand at 10 nM (Ligand on‐phase) and B) Time course of the cAMP‐dependent luminescence response measured at 2‐minute intervals after washout of unbound ligand (Ligand wash‐out phase). GP‐2.3 cells preloaded with luciferin were treated with a concentration of PTH ligand at a concentration of 10 nM for 30 min, and cAMP‐dependent luminescence was measured at two‐minute intervals (ligand‐on phase). The cells were then removed from the plate reader, rinsed twice with media to remove unbound ligand, and then fresh media containing luciferin but lacking ligand was added and luminescence was assessed for additional 90 min (Ligand wash‐out phase). Data are means (± SEM) of four experiments, each performed in triplicate. Figure S2. In vivo calcemic actions of M‐PTH/PTHrP hybrid analogs in normal rats. The indicated M‐PTH/PTHrP hybrid analogs (sequences are shown in Figure 1) along with PTH(1–34) and PTHrP(1–36) controls, were administered at the indicated doses by i.v. injection, and at the indicated time points blood was collected from the tail vein and measured for ionized calcium (Ca^2+). Panels A‐C represent three separate experiments. Data are means ± SEM; n = 6 or 4 (80 nmol/kg of M‐PTH(1‐11)/PTHrP(12–36), M‐PTH(1‐14)/PTHrP(12–36), M‐PTH(1‐17)/PTHrP(18–36) and 1.25 nmol/kg of M‐PTH(1–30)/PTHrP(31–36)). *p < 0.05 versus Vehicle. Figure S3. Effects of 11 days treatment (12 days study) of M‐PTH/PTHrP on serum 1,25(OH) 2 Vitamin‐D3, urinary deoxypyridinoline (Dpd) and serum FGF23 in TPTX rats. Serum and urine samples obtained from the TPTX and sham control rats of the two‐week daily‐administration experiment shown in Figure 4 were analyzed by ELISA for the indicated markers. A) serum 1,25(OH)2Vitamin‐D3. B) urinary deoxypyridinoline (DpD)/Cre. C) serum FGF23. […]

- IC50 [1]: 2.69 ± 0.99 nM
- Concentration at which the peptide is poorly soluble [2]: > 300 µg/mL
- sCa levels ([3]; 8 hours after administration): frank hypercalcemia
- uCa at 0 to 8 hours and uDpD at 0 to 24 hours ([3]; after the last administration): increased significantly
Sequence: AVAEIQLMHQRAKWIQDLRRRFFLHHLIAEIHTAEI [M‐PTH(1‐14)/PTHrP(15‐36), [Ala^1,3,12,Gln^10,Arg^11,Trp^14]‐PTH(1‐14)/PTHrP(15–36)]
